Experimental data: patent US8236756B2, “Prodrugs cleavable by CD26” (Consejo Superior de Investigaciones Clentificas (CSIC), priority 2003, dated 2012)

Assays:
purified CD26 [1] = target: T1, purified CD26 (Homo sapiens, UniProt P27487); assay: Conversion of peptide prodrugs to parent compound by purified CD26 (HPLC); assay type: biochemical
T1 construct: made in house
Description: To reveal whether CD26 recognizes such synthetic di/tripeptide derivatives of lipophilic nucleoside analogues as a substrate, 50 μM CAM-405 or CAM-431 was exposed to 5.7 mUnits of purified CD26, and the conversion of CAM-405 or CAM-431 to respectively CAM-212 or CAM-403 (Val-NAP-TSAO) was recorded in function of incubation time by HPLC analysis. […] Within the first 10 min of the reaction, at least 20% of CAM-405 had been converted to CAM-212, fifty percent of the TSAO dipeptide derivative was converted to CAM-212 within 30 min of the reaction and ˜67% of CAM-405 was hydrolyse after 60 min. Thus, the reaction rate started already to slow down after the first 10 min of drug exposure (FIG. 2). Most likely, the release of the reaction product Val-Pro dose-dependently feed-back inhibited the CD26-catalysed dipeptidyl-peptidase reaction. […] Thus, in the presence of 50 μM CAM-405, hydrolysis of 50% of CAM-405 to CAM-212 results in the appearance of 25 μM Val-Pro, that is a concentration that (feed-back) inhibits the CD26 reaction by ˜50%. These findings explain why the CD26-catalysed reaction levels-off shortly after the start of the exposure of the drug to CD26. […] Thus, a further level of modulation of the rate of prodrug release can be introduced by choosing a dipeptide moiety that competes for the active site of CD26, until the dipeptide has diffused from the tissue wherein CD26 is present. The inhibitory activity of any dipeptide can be evaluated by the above mentioned assay.
The conversion rate in function of time is given in Table 1 for NAP-TSAO-dipeptides where the dipeptide consists of: Val-Pro, Val-D-Pro, Asp-Pro, Lys-Pro, Tyr-Pro, Gly-Pro, Val-4-hydroxyPro, Gly-3,4-dihydroxyPro, but also Val-Gly, Val-Ala, Val-Leu and Val-Phe. It is clear that the conversion rate to the parent NAP-TSAO differs depending the nature of the dipeptide. Also, when the terminal amine of the dipeptide has been blocked by a lipophilic group (i.e. methyl, Z or Fmoc), the prodrug looses measurable substrate activity for CD26.
The conversion rate in function of time is given in Table 2 for tetrapeptide NAP-TSAO compounds where the tetrapeptide consists of: Val-Pro-Val-Pro [SEQ ID no:6] (CAM 467), Val-Ala-Val-Pro [SEQ ID no:7] (CAM 473) or Lys-Pro-Asp-Pro [SEQ ID no:8] (CAM 477). […] Only traces of dipeptide prodrug (CAM 405) is seen as intermediate in the conversion of the tetrapeptide CAM 473 to NAP-TSAO.
(§1) All enzyme activity assays were performed in Eppendorf tubes on a heating block at 37° C. To each tube were added 32 μl CD26 (at a final concentration of 1.5 milliUnits) or 10 μl foetal bovine serum (BS) (final concentration: 2.5% BS in PBS; preheated at 56° C. for 30 min) or 10 μl human serum (HS) (final concentration: 2.5% HS in PBS), 40 μl of appropriate concentrations of inhibitor (Diprotin A) solution in PBS (for the exact concentrations, see the legend to FIG. 5), CAM-405 (the substrate of the reaction) at […] (final concentration) and PBS to reach a total volume of 400 μl. The pH of the reaction mixture was 7.5, which is virtually identical to the physiological pH of plasma. The reaction was started by the addition of the enzyme or serum and carried out at 37° C. After 5 hr, 100 μl reaction mixture was taken from the Eppendorf tube and added to 200 μl cold methanol to precipitate the proteins. After 10 min standing on ice, the contents of the tubes were centrifuged and the supernatants analysed by HPLC on a reverse phase column (RP-8, Merck Laboratories). CAM-405 was separated from CAM-212 (the product of the reaction) by a gradient of 50 mM sodium phosphate+5 mM heptane sulfonic acid pH 3.2 (Buffer A) and acetonitrile (Buffer B) as follows: Buffer A: 98%+2% Buffer B, 2 min; linear gradient to 20% Buffer. […]

[2] = Conversion of prodrugs to parent compound by bovine serum diluted in PBS; assay type: in vitro ADME; settings: 50 μM; 0.5-5% BS in PBS; 3, 6, 24 hr; 37° C.
Description: (§2) Human and bovine serum were incubated for 3 hr, 6 hr and/or 24 hr at 37° C. in the presence of 50 μM CAM-405. The sera were diluted in PBS at a final concentration of 0.5, 1, 2.5 or 5%. […] The longer the incubation time, and the higher the serum concentration used, the faster the conversion of CAM-405 to CAM-212 occurred (FIG. 4). As also noted for CD26, HS- and BS-catalysed reaction slowed down in function of time, and was not linearly proportional with serum concentration (FIG. 4). These findings provide again evidence for a pronounced feed-back inhibition of dipeptidyl-peptidase activity in human and bovine serum by the released Val-Pro dipeptide. HS was more efficient in converting CAM-405 to CAM-212 than BS (FIG. 4). Since 1% HS is able to hydrolyse ˜20% of 50 μM CAM-405 within 3 hrs of incubation, it could be calculated that undiluted serum would have been able to convert this prodrug amount to its parent compound at a hundred fold higher speed, that is, within 1.8 min, provided that no feed-back inhibition would have occurred (as expected in the intact organism where release of Pro-Val would immediately result in disappearance from the plasma due to several mechanisms including organ uptake, renal excretion, etc.).
(§3) Ten percent BS or HS converted 40 to 70% of PI-2 to PI-1 in one hour (FIG. 10). Two percent BS and HS converted PI-2 to PI-1 by 8% and 25%, respectively. After 4 hrs, 35% and 95% of compound was hydrolyzed by BS and HS, respectively (FIG. 11).
(§4) The TSAO derivatives depicted in FIG. 1 can be synthesised as described below. GlyPro-pNA (GP-pNA), Diprotin A and Val-Pro were purchased from Sigma-Aldrich (Bornem, Belgium). CD26 was purified as described before [De Meester et al. J. Immunol. Methods (1996), 189: 99-105]. Foetal bovine serum (FBS) was obtained from Integro (Dieren, The Netherlands). Human serum represented a pooled serum that was derived from 10 healthy volunteers (blood donors). Human lymphocyte CEM cells were derived from the ATCC (Rockville, Md.).

[3] = Conversion of prodrugs to parent compound by human serum diluted in PBS; assay type: in vitro ADME
Description: as §2
Only a very limited amount of NAP-TSAO (but not D-Pro-NAP-TSAO) had been detected (FIG. 6).
as §3, §4

[4] = test system: T-lymphocytic CEM cell suspensions; assay: Conversion of Val-Pro-NAP-TSAO to NAP-TSAO by CEM cell suspensions; assay type: cell-based, human; settings: ten million CEM cells in 200 μl PBS; 3 hrs; 37° C.
Description: The conversion of Val-Pro-NAP-TSAO (CAM-405) to NAP-TSAO (CAM-212) also efficiently occurred by carefully washed T-lymphocytic CEM cell suspensions in PBS. Ten million CEM cells suspended in 200 μl PBS hydrolysed the Val-Pro moiety from CAM-405 by 65% within 3 hrs of incubation at 37° C. This amount of hydrolysis was found both in the PBS supernatant and in the CEM cell extracts. Presumably, CD26 present in the cell membrane of CEM cells had cleaved-off the Val-Pro from CAM-405 after which both truncated and intact prodrug had been taken up by the lymphocytic cells to an equal extent.
as §4

purified CD26 [5] = target: T1, purified CD26; assay: Conversion of peptide prodrugs to parent compound by purified CD26 (HPLC); assay type: biochemical; settings: 50 μM, 5.7 mUnits purified CD26, 37° C.
purified CD26 [6] = target: T1, purified CD26; assay: Effect of CD26 inhibitor on conversion of CAM-405 to CAM-212 by purified CD26; assay type: biochemical; settings: CD26 1.5 mUnits, 50 μM CAM-405
Description: (§5) CD26-catalysed CAM-405 conversion to CAM-212 was recorded in the absence or presence of the CD26 inhibitor diprotin A (FIG. 5). […] These observations point to CD26 as the main and predominant enzyme responsible in HS and BS to remove the dipeptide part from the lipophilic NAP-TSAO dipeptide nucleoside analogue.
as §1, with “Laboratories).” for “Laboratories). CAM-405 was separated from CAM-212 (the product of the reaction) by a gradient of 50 mM sodium phosphate+5 mM heptane sulfonic acid pH 3.2 (Buffer A) and acetonitrile (Buffer B) as follows: Buffer A: 98%+2% Buffer B, 2 min; linear gradient to 20% Buffer.”

[7] = Effect of CD26 inhibitor on conversion of CAM-405 to CAM-212 by bovine serum; assay type: biochemical; settings: 2.5% BS in PBS, 50 μM CAM-405
Description: as §5
as §1, with “Laboratories).” for “Laboratories). CAM-405 was separated from CAM-212 (the product of the reaction) by a gradient of 50 mM sodium phosphate+5 mM heptane sulfonic acid pH 3.2 (Buffer A) and acetonitrile (Buffer B) as follows: Buffer A: 98%+2% Buffer B, 2 min; linear gradient to 20% Buffer.”

[8] = Effect of CD26 inhibitor on conversion of CAM-405 to CAM-212 by human serum; assay type: biochemical; settings: 2.5% HS in PBS, 50 μM CAM-405
Description: as §5
as §1, with “Laboratories).” for “Laboratories). CAM-405 was separated from CAM-212 (the product of the reaction) by a gradient of 50 mM sodium phosphate+5 mM heptane sulfonic acid pH 3.2 (Buffer A) and acetonitrile (Buffer B) as follows: Buffer A: 98%+2% Buffer B, 2 min; linear gradient to 20% Buffer.”

T1 sequence (P27487 whole entry): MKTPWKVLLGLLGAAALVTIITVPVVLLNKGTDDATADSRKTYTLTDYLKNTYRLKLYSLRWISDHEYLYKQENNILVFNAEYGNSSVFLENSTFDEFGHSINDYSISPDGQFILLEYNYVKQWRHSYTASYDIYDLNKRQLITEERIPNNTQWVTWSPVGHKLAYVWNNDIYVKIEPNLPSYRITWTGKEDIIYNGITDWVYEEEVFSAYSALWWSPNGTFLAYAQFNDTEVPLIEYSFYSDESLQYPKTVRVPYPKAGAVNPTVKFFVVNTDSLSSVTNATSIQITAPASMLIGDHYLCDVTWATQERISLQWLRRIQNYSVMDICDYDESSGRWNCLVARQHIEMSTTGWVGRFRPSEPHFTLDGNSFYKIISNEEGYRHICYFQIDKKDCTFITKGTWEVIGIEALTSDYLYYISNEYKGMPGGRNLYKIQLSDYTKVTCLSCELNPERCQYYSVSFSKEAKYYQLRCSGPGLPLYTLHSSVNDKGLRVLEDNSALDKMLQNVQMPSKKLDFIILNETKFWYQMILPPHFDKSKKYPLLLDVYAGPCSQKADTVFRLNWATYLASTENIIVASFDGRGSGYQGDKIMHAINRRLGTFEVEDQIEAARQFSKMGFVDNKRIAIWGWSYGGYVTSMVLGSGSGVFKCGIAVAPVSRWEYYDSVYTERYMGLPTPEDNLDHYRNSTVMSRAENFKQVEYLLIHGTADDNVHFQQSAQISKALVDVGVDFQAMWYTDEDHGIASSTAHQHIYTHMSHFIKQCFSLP

## Cc1cn(C2OC(CO[Si](C)(C)C(C)(C)C)C3(OS(=O)(=O)C=C3N)C2O[Si](C)(C)C(C)(C)C)c(=O)n(CCCNC(=O)[C@@H]2CCCN2C(=O)[C@@H](N)C(C)C)c1=O (stereo partly drawn) [CAM-405, H-Val-Pro-NAP-TSAO]
Purified CD26 [1]; 50 μM, 5.7 mUnits purified CD26, 37° C., 10 min
  Conversion of CAM-405 to CAM-212, first 10 min: at least 20%
Purified CD26 [1]; 50 μM, 5.7 mUnits purified CD26, 37° C., 30 min
  Conversion of CAM-405 to CAM-212, within 30 min: fifty
Purified CD26 [1]; Table 1, purified CD26 1.5 mUnits, 1 h
  Conversion % to parent compound by purified CD26, 1 h: 37%
Purified CD26 [1]; Table 1, purified CD26 1.5 mUnits, 4 h
  Conversion % to parent compound by purified CD26, 4 h: 62%
Purified CD26 [1]; Table 1, purified CD26 1.5 mUnits, 24 h
  Conversion % to parent compound by purified CD26, 24 h: 61%
Purified CD26 [1]; Table 2, purified CD26 1.5 mUnits, 1 h
  % conversion to parent compound by purified CD26, 1 h: 37%
Purified CD26 [1]; Table 2, purified CD26 1.5 mUnits, 4 h
  % conversion to parent compound by purified CD26, 4 h: 62%
Purified CD26 [1]; Table 2, purified CD26 1.5 mUnits, 24 h
  % conversion to parent compound by purified CD26, 24 h: 61%
[2]
  Conversion of CAM-405 to CAM-212 by bovine serum, in words: efficiently converted
[3]; 10 μM, extrapolated from 1% human serum
  Calculated time for undiluted serum to convert this prodrug amount to parent compound: less than 1.8 min
[3]; 50 μM, 0.5-5% HS in PBS, 3, 6, 24 hr, 37° C.
  Conversion of CAM-405 to CAM-212 by human serum, in words: efficiently converted
[3]; 50 μM, 1% HS in PBS, 3 hrs, 37° C.
  Hydrolysis of CAM-405 by 1% human serum within 3 hrs: ~20%
[3]; undiluted human serum, extrapolated, provided no feed-back inhibition
  Calculated time for undiluted serum to convert this prodrug amount to parent compound: ≤ 1.8 min
[4]
  Hydrolysis of the Val-Pro moiety by CEM cells: 65%
Purified CD26 [5]
  Hydrolysis of CAM-405, after 60 min: ~67%

## Diprotin A
Purified CD26 [6]; 100 μM
  Suppression of conversion of CAM-405 to CAM-212 by purified CD26 at 100 μM inhibitor: > 50%
Purified CD26 [6]; 1000 μM
  Prevention of conversion of CAM-405 to CAM-212 by purified CD26 at 1000 μM inhibitor: nearly complete prevention
[7]; 100 μM
  Suppression of conversion of CAM-405 to CAM-212 by BS at 100 μM inhibitor: > 50%
[7]; 1000 μM
  Prevention of conversion of CAM-405 to CAM-212 in BS at 1000 μM inhibitor: nearly complete prevention
[8]; 100 μM
  Suppression of conversion of CAM-405 to CAM-212 by HS at 100 μM inhibitor: > 50%
[8]; 1000 μM
  Prevention of conversion of CAM-405 to CAM-212 in HS at 1000 μM inhibitor: nearly complete prevention
